Results from US8329717B2, “Pyrimidine derivatives and their use for controlling undesired plant growth” (Bayer Cropscience AG, priority 2008, dated 2012).

What was measured:
[1] = logp (HCOOH), chemicophysical data; conditions: HCOOH
Amaranthus retroflexus = assay: Pre-emergence herbicidal effect; assay type: in vivo; conditions: Dosage 320 g/ha, visual scoring after 3 weeks vs untreated controls, 100% = plants have died
Text: (§1) 1. Pre-Emergence Herbicidal Effect and Crop Plant Compatibility Seeds of monocotyledonous or dicotyledonous weed plants or crop plants are planted in wood-fiber pots in sandy loam and covered with earth. The compounds according to the invention, formulated in the form of wettable powders (WP) or as emulsion concentrates (EC), are then applied as aqueous suspension or emulsion at a water application rate of 600 to 800 l/ha (converted) with the addition of 0.2% of wetting agent to the surface of the covering earth. The dosage of the compounds according to the invention is given in grams per hectare. Following the treatment, the pots are placed in a greenhouse and kept under good growth conditions for the test plants. The visual scoring of the damage on the test plants is carried out after an experiment time of 3 weeks in comparison with untreated controls (herbicidal effect in percent (%): 100% effect=plants have died, 0% effect=as control plants). The following abbreviations are used in the tables below: [table]

Matricaria inodora = assay: Pre-emergence herbicidal effect; assay type: in vivo; conditions: Dosage 320 g/ha, visual scoring after 3 weeks vs untreated controls, 100% = plants have died
Text: as §1

Polygonum convolvulus = assay: Pre-emergence herbicidal effect; assay type: in vivo; conditions: Dosage 320 g/ha, visual scoring after 3 weeks vs untreated controls, 100% = plants have died
Text: as §1

Veronica persica = assay: Pre-emergence herbicidal effect; assay type: in vivo; conditions: Dosage 320 g/ha, visual scoring after 3 weeks vs untreated controls, 100% = plants have died
Text: as §1

Setaria viridis = assay: Pre-emergence herbicidal effect; assay type: in vivo; conditions: Dosage 320 g/ha, visual scoring after 3 weeks vs untreated controls, 100% = plants have died
Text: as §1

Viola tricolor = assay: Pre-emergence herbicidal effect; assay type: in vivo; conditions: Dosage 320 g/ha, visual scoring after 3 weeks vs untreated controls, 100% = plants have died
Text: as §1

Stellaria media = assay: Pre-emergence herbicidal effect; assay type: in vivo; conditions: Dosage 320 g/ha, visual scoring after 3 weeks vs untreated controls, 100% = plants have died
Text: as §1

Lolium multiflorum = assay: Pre-emergence herbicidal effect; assay type: in vivo; conditions: Dosage 320 g/ha, visual scoring after 3 weeks vs untreated controls, 100% = plants have died
Text: as §1

SMILES | logp (HCOOH) [1] | further results
Cc1ccc2c(c1)C(Nc1ncc(I)c(N)n1)C(C)C2 (mixture of isomers) [Example 1.87] | wax-like; logp (HCOOH): 1.37; 1H-NMR (CDCl3, 400 MHZ, δ in ppm): 1.25 (d, 3H, CH3); | –
Cc1nc(NC2CCOc3ccc(C(C)C)cc32)nc(N)c1C#N (racemic) [Example 1.27] | solid, m.p.: 158.8° C.; logp (HCOOH): 2.51; 1H-NMR (CDCl3, 400 MHZ, δ in ppm): 1.15 | –
N#Cc1c(N)nc(NC2CCCc3ccccc32)nc1C(F)(F)F (racemic) [Example 1.29] | solid; m.p.: 205.8° C.; logp (HCOOH): 3.43; 1H-NMR (CDCl3, 400 MHZ, δ in ppm): 1.85 | –
Cc1nc(NC2CCCc3ccccc32)nc(N)c1[N+](=O)[O-] (racemic) [Example 1.124] | – | Pre-emergence herbicidal effect AMARE (Amaranthus retroflexus): 100%; Pre-emergence herbicidal effect MATIN (Matricaria inodora): 90%; Pre-emergence herbicidal effect POLCO (Polygonum convolvulus): 90%; Pre-emergence herbicidal effect VERPE (Veronica persica): 100%; Pre-emergence herbicidal effect SETVI (Setaria viridis): 80%; Pre-emergence herbicidal effect VIOTR (Viola tricolor): 100%; Pre-emergence herbicidal effect STEME (Stellaria media): 100%
COC(=O)c1cc(N)nc(NC2CCCc3ccccc32)n1 (racemic) [Example 1.212] | wax-like; logp (HCOOH): 2.54; 1H-NMR (CDCl3, 400 MHZ, δ in ppm): 1.80-2.10 (m, | –
N#Cc1cnc(NC2CCc3cc(Cl)ccc32)nc1N (racemic) [Example 1.216] | wax-like; logp (HCOOH): 2.18; 1H-NMR (CDCl3, 400 MHZ, δ in ppm): 1.80 (m, 1H, 1H | –
Cc1nc(NC2CCc3cc(Cl)ccc32)nc(N)c1C#N (racemic) [Example 1.217] | wax-like; logp (HCOOH): 2.21; 1H-NMR (CDCl3, 400 MHZ, δ in ppm): 1.80 (m, 1H, 1H | –
Cc1nc(NC2(C)CCCc3ccccc32)nc(N)c1C#N (racemic) [Example 1.224] | wax-like; logp (HCOOH): 3.37; 1H-NMR (CDCl3, 400 MHZ, δ in ppm): 1.80 (m, 1H, 1H | –
CCc1ccc2c(c1)C(Nc1ncc(C(F)(F)F)c(N)n1)CCO2 (racemic) [Example 1.238] | wax-like; logp (HCOOH): 2.02; 1H-NMR (CDCl3, 400 MHZ, δ in ppm): 1.15 (t, 3H, CH3); | –
COc1ccc2c(c1)C(Nc1ncc(C(F)(F)F)c(N)n1)CCO2 (racemic) [Example 1.239] | wax-like; logp (HCOOH): 1.46 | –
CC1(C)CC(Nc2ncc(C(F)(F)F)c(N)n2)c2cc(F)c(Cl)cc2O1 (racemic) [Example 1.241] | wax-like; logp (HCOOH): 2.83; 1H-NMR (CDCl3, 400 MHZ, δ in ppm): 1.30 (s, 3H, CH3); | –
CC1Cc2ccc(F)cc2C1Nc1ncc(C(F)(F)F)c(N)n1 (racemic) [Example 1.243] | wax-like; logp (HCOOH): 1.93; 1H-NMR (CDCl3, 400 MHZ, δ in ppm): 0.95 (d, 3H, CH3); | –
Cc1cccc2c1CCC2Nc1ncc(C(F)(F)F)c(N)n1 (racemic) [Example 1.254] | wax-like; logp (HCOOH): 1.75; 1H-NMR (CDCl3, 400 MHZ, δ in ppm): 2.10 (s, 3H, | –
Cc1cc(C)c2c(c1)C(Nc1ncc(C#N)c(N)n1)CCC2 (racemic) [Example 1.271] | wax-like; logp (HCOOH): 2.60; 1H-NMR (CDCl3, 400 MHZ, δ in ppm): 1.85 (m, 3H, 3H | –
Cc1ccc2c(c1)[C@H](Nc1nccc(N)n1)[C@@H](C)C2 [Example 1.38] | wax-like; logp (HCOOH): 1.25; 1H-NMR (CDCl3, 400 MHZ, δ in ppm): 1.25 (m, 3H, CH3); | –
C[Si](C)(C)C#Cc1cnc(N[C@@H]2CCCc3ccccc32)nc1N [Example 1.39] | wax-like; logp (HCOOH): 1.86; 1H-NMR (CDCl3, 400 MHZ, δ in ppm): 0.25 (s, 9H, CH3); | –
Cc1ccc2c(c1)[C@H](Nc1nc(C)cc(N)n1)[C@@H](C)C2 [Example 1.41] | wax-like; logp (HCOOH): 1.12; 1H-NMR (DMSO, 400 MHZ, δ in ppm): 1.15 (d, 3H, CH3); | –
Cc1ccc2c(c1)[C@H](Nc1ncc(C)c(N)n1)[C@@H](C)C2 [Example 1.51] | – | Pre-emergence herbicidal effect MATIN (Matricaria inodora): 100%; Pre-emergence herbicidal effect LOLMU (Lolium multiflorum): 100%; Pre-emergence herbicidal effect VERPE (Veronica persica): 100%; Pre-emergence herbicidal effect STEME (Stellaria media): 100%
Cc1ccc2c(c1)[C@H](Nc1nc(N)c(C#N)c(C(C)C)n1)[C@@H](C)C2 [Example 1.64] | wax-like; logp (HCOOH): 3.90; 1H-NMR (CDCl3, 400 MHZ, δ in ppm): 1.25 (m, 9H, | –
CC(C)c1nc(N[C@@H]2CCCc3ccccc32)nc(N)c1C#N [Example 1.66] | wax-like; logp (HCOOH): 3.34; 1H-NMR (CDCl3, 400 MHZ, δ in ppm): 1.25 (m, 6H, | –
Nc1cc(Cl)nc(N[C@@H]2CCCc3ccccc32)n1 [Example 1.76] | – | Pre-emergence herbicidal effect AMARE (Amaranthus retroflexus): 90%; Pre-emergence herbicidal effect MATIN (Matricaria inodora): 100%; Pre-emergence herbicidal effect VERPE (Veronica persica): 100%; Pre-emergence herbicidal effect STEME (Stellaria media): 100%
Cc1ccc2c(c1)[C@H](Nc1nc(N)c(C#N)c(-c3ccccc3C)n1)[C@@H](C)C2 [Example 1.77] | solid; logp (HCOOH): 3.83; 1H-NMR (CDCl3, 400 MHZ, δ in ppm): 1.25 (m, 3H, CH3); | –
